This is an account of results in patent US5019584A, “Therapeutically active chloro substituted benzimidazole” (priority 1988, dated 1991).

A short description of series [1]: Inhibition of Gastric Acid Secretion in the Conscious Male Rat. The settings on record: in vivo, ratio ED50 iv/ED50 id, read-out: "Bioavailability" measured by the Rough Screening Model, Rat ED50 iv/ED50 id (%). In kind it is in vivo, Sprague-Dawley. The procedure: (§1) Since the bioavailability model described above is time and labour intensive, and requires a large number of plasma analyses, also a rough screening model, based on relative potencies to inhibit acid secretion, has been used (see for instance: A. Goth, Medical Pharmacology, 7th ed., C. V. Mosby Company, Saint Louis 1974, p 19). Thus, the ratio (called "Bioavailability" in Table 3) between the ED50 at intravenous administration and the ED50 at intraduodenal administration was calculated.
(§2) The potency for inhibition of acid secretion has been measured in the male rat and the dog, both intravenously and intraduodenally. When it comes to relevance of the animal test data for potency of a given compound in man for the present type of compounds, it is believed that potency in man will correspond to a level somewhere between what is measured in the male rat and what is measured in the dog.
(§3) Inhibition of Gastric Acid Secretion in the Conscious Male Rat.
(§4) Male rats of the Sprague-Dawley strain were used. They were equipped with cannulated fistulae in the stomach (lumen) and the upper part of the duodenum, for collection of gastric secretions and administration of test substances, respectively. A fourteen days recovery period after surgery was allowed before testing commenced.
(§5) Before secretory tests, the animals were deprived of food but not water for 20 h. The stomach was repeatedly washed through the gastric cannula, and 6 ml of Ringer-Glucose given s.c. Acid secretion was stimulated with a infusion during 3.5 h (1.2 ml/h, s.c.) of pentagastrin and carbachol (20 and 110 nmol/kg h, respectively), during which time gastric secretions were collected in 30-min fractions. Test substances or vehicle were given iv or id at 90 min after starting the stimulation, in a volume of 1 ml/kg. Gastric juice samples were titrated to pH 7.0 with NaOH, 0.1 mol/L, and acid output calculated as the product of titrant volume and concentration. Further calculations were based on group mean responses from 4-5 rats. The acid output during the periods after administration of test substances or vehicle were expressed as fractional responses, setting the acid output in the 30-min period preceding administration to 1.0. Percentage inhibition was calculated from the fractional responses elicited by test compound and vehicle. ED50 values were obtained from graphical interpolation on log dose-response curves, or estimated from single-dose experiments assuming a similar slope for all dose-response curves. An estimation of the bioavailability was obtained by calculating the ratio ED50 iv /ED50 id. The results reported are based on gastric acid secretion during the second hour after drug/vehicle administration.

Series [2] deals with gastric acid secretion (stimulated with pentagastrin and carbachol). Described as above. The class given is in vivo, Sprague-Dawley. The settings on record: 2 h, acid secretion during second hour after administration. How it is done: as §1, §2, §3, §4, §5
Series [3] concerns gastric acid secretion (stimulated with histamine dihydrochloride). Nature of the series: Inhibition of Gastric Acid Secretion in the Conscious Dog. The class given is in vivo, Harrier dog, either sex. Conditions: for ED50: Canis lupus familiaris, dog, acid output 2 h after dosing. How it is done: as §2
Inhibition of Gastric Acid Secretion and Bioavailability in the Conscious Dog.
Harrier dogs of either sex were used. They were equipped with a duodenal fistula for the administration of test compounds or vehicle and a cannulated ventricular fistula for the collection of gastric secretions.
Before secretory tests the animals were fasted for about 18 h but water was freely allowed. Gastric acid secretion was stimulated by a 4 h infusion of histamine dihydrochloride (12 ml/h) at a dose producing about 80% of the individual maximal secretory response, and gastric juice collected in consecutive 30-min fractions. Test substance or vehicle was given id or iv 1 h after starting the histamine infusion, in a volume of 0.5 ml/kg body weight. The acidity of the gastric juice samples were determined by titration to pH 7.0, and the acid output calculated. The acid output in the collection periods after administration of test substance or vehicle were expressed as fractional responses, setting the acid output in the fraction preceding administration to 1.0. Percentage inhibition was calculated from fractional responses elicited by test compound and vehicle. ED50 --values were obtained by graphical interpolation on log dose-response curves, or estimated from single-dose experiments under the assumption of the same slope of the dose-response curve for all test compounds. All results reported are based on acid output 2 h after dosing.

A short description of series [4]: Bioavailability in the Male Rat (AUC method). In kind it is in vivo, Sprague-Dawley. The settings on record: blood, 4 umol/kg, AUC id vs iv, 4 μmol/kg, read-out: Bioavailability measured by the AUL-method, F %, Rat. The procedure:
Bioavailability is assessed by calculating the quotient between the area under plasma concentration (AUC) curve following intraduodenal (id) administration and intravenous (iv) administration from the rat or the dog. Low, therapeutically relevant doses, were used. This method is scientifically recognized as valid for assessing bioavailability (see for instance: M. Rowland and T.N. Tozer, Clinical Pharmacokinetics, 2nd ed., Lea & Febiger, London 1989, p 42). Bioavailability in the Male Rat. Male adult rats of the Sprague-Dawley strain were used. One day, prior to the experiments, all rats were prepared by cannulation of the left carotid artery under anaesthesia. The rats used for the intravenous experiments, were also cannulated in the jugular vein. (Ref. V Popovic and P Popovic, J Appl Physiol 1960;15,727-728). The rats used for the intraduodenal experiments, were also cannulated in the upper part of the duodenum. The cannulas were exteriorized at the nape of the neck. […] The area under the blood concentration vs time curve, AUC, was determined by the linear trapezoidal rule and extrapolated to infinity by dividing the last determined blood concentration by the elimination rate constant in the terminal phase. The systemic bioavailability (F %) following intraduodenal administration was calculated as [formula]

Series [5] can be described thus: Chemical Stability in aqueous buffer solution at pH 7. In kind it is physicochemical. The settings on record: pH 7, 37° C., low concentration; for half-life: read-out: Chemical Stability at pH 7, half-life (t 1/2) (converted). The procedure:
The chemical stability of various compounds of the invention has been followed kinetically at low concentration at 37° C. in aqueous buffer solution at different pH values. The results in Table 3 show the half life (t 1/2) at pH 7, that is the time period after which half the amount of the original compound remains unchanged.

The mark [6] stands for this setting: route id (intraduodenal), read-out: Inhibition of acid secretion, Rat ED50, id.
The mark [7] stands for this setting: route iv, read-out: Inhibition of acid secretion, Rat ED50, iv.
Where [8] appears, read: route id (intraduodenal), Ref. value: estimated from one dog (footnote 1), read-out: Inhibition of acid secretion, Dog ED50, id.

Broadly, the ED50 is the dose that gives a 50% effect, or the effect in half of the subjects.

The structures appear in SMILES notation. Where two headings read alike, the source gives them in different places.

Consider `COc1ccnc(C[S+]([O-])c2nc3cc(Cl)ccc3[nH]2)c1OC` (centres unmarked) [Example 1, 5-chloro-2-[[(3,4-dimethoxy-2-pyridinyl)methyl]sulfinyl]-1H-benzimidazole], for which the results for the bioavailability in series [1] and in series [4] were 50% and 97%, respectively. The ED50 was 2.6 µmol/kg in series [2] (setting [6]); 1.3 µmol/kg in series [2] (setting [7]); 1.2 µmol/kg in series [3] (setting [8]); 1.75 µmol/kg in series [3] (route iv, Example 1 value: only one dog (footnote 2), read-out: Inhibition of acid secretion, Dog ED50, iv). Besides, in series [5], the “Chemical Stability at pH 7, half-life (t 1/2)” value was 30 h. In addition, the half-life in series [5] is 30 h.

As to `COc1ccnc(C[S+]([O-])c2nc3cc(F)ccc3[nH]2)c1OC` (centres unmarked) [Ref., 5-fluoro-2-[[(3,4-dimethoxy-2-pyridinyl)methyl]sulfinyl]-1H-benzimidazole], the bioavailability in series [1] amounted to 49%; in series [4], 47%. Besides, the values for the ED50 in series [2] (setting [6]), in series [2] (setting [7]) and in series [3] (setting [8]) were 1.75 µmol/kg, 0.85 µmol/kg and 1.1 µmol/kg, respectively. For the same molecule, the “effect on acid secretion at 1.0 μmol/kg” value in series [3] (Dog 1, 1.0 μmol/kg, id) is on record as “no effect”. Besides, in series [3] (Dog 2, 2.0 μmol/kg, id), the “inhibition of acid secretion at 2.0 μmol/kg” value is given as 70%. The “Chemical Stability at pH 7, half-life (t 1/2)” value in series [5] came to 58 h. In series [5], the half-life is 58 h.
